Experimental data: patent US7425218B2, “Nitric oxide-releasing medical devices” (The United States of America as represented by the …, priority 1992, dated 2008)
Counter-ions that a name gives are not always drawn.

Test: decomposition and nitric oxide production at pH 7 and 25° C.
Type: physicochemical
Conditions: for half-life of decomposition: for the carbethoxy compound based on loss of the 252-nm chromophore in the UV spectrum
Procedure: The analysis of NO adducts, i.e., polymers containing the nitric oxide-releasing N2O2^− functional group, was done on a nitric oxide analyzer and was patterned after the procedure of Maragos et al., J. Med. Chem., 34, 3242-3247 (1991). A reactor vessel fitted with a septum was charged with a small aliquot of the polymer to be studied and the system was purged with helium for several minutes to remove traces of oxygen. […]
To a solution of 510 mg (1.97 mmol) of 1-(N-acetyl-L-methionyl)piperazine in 1 ml of methanol was added 428 μl (1.97 mmol) of 25% sodium methoxide in methanol. The system was degassed and charged with 40 psi of nitric oxide. After exposure of the solution to NO for 120 h, the pressure was released and the solid product was collected by filtration, washed with ether, and dried to give 27 mg of 1-[4-(N-acetyl-L-methionyl)piperazin-l-yl]-1-oxo-2-hydroxydiazene, sodium salt, as a white solid: UV λmax (ε) 252 nm (12.0 mM^−1 cm^−1).
A solution of 20 g (0.126 mol) of ethyl 1-piperazinecarboxylate in 60 ml of methanol was placed in a Parr bottle. The solution was treated with 27.4 ml (0.126 mol) of 25% sodium methoxide in methanol. The system was evacuated, charged with 40 psi of nitric oxide and kept at 25° C. for 48 h. The white crystalline product was collected by filtration and washed with cold methanol as well as with copious amounts of ether. The product was dried under vacuum to give a 14.5 g (48%) yield of 1-(4-carbethoxypiperazin-1-yl)-1-oxo-2-hydroxydiazene, sodium salt: mp 184-5° C.; UV (0.01 M NaOH) λmax (ε) 252 nm (10.4 mM^−1 cm^−1); NMR (D2O) δ 1.25 (t, 3 H), 3.11 (m, 2 H), 3.68 (m, 2 H), 4.15 (q, 2 H). Anal Calcd. for C6H13N4O4Na: C, 35.00%; H, 5.42%; N, 23.33%; Na, 9.58%. Found: C, 34.87%; H, 5.53%; N, 23.26%; Na, 9.69%. The half-life of this compound at pH 7 and 25° C. was 5 min. This measurement was based on the loss of the 252-nm chromophore in the ultraviolet spectrum.

Row | half-life of decomposition [min] | moles of NO produced per mole of test agent | SMILES
1 | 5 | – | CCOC(=O)N1CCN([N+]([O-])=N[O-])CC1.[Na+] [1-(4-carbethoxypiperazin-1-yl)-1-oxo-2-hydroxydiazene, sodium salt]
2 | 6.9 | 1.72 moles of NO per mole of test agent | CSCC[C@H](NC(C)=O)C(=O)N1CCN([N+]([O-])=NO)CC1 [1-[4-(N-acetyl-L-methionyl)piperazin-l-yl]-1-oxo-2-hydroxydiazene, sodium salt]
